Measured values reported in patent publication US7652046B2, “Substituted thienopyrrole carboxylic acid amides, pyrrolothiazole carboxylic acid amides, and related analogs as inhibitors of casein kinase I” (Aventis Pharmaceuticals Inc., priority 2004, dated 2010).
pKi: −log10 of the molar value.

Biological target: T1, Casein Kinase Iε (Homo sapiens, UniProt P49674)
T1 construct: made in house
Assay: Casein Kinase Epsilon 33P-ATP Filter Plate Assay
Format: biochemical
Description: Casein Kinase Epsilon ^33P-ATP Filter Plate Assay for Screening CKIε Inhibitors
Purpose: This assay measures the ability of compounds to inhibit the phosphorylation of the substrate casein by the enzyme casein kinase 1ε using an in vitro ^33P-ATP filtration assay. […] Materials:
Equipment: • Beckman Biomek 2000 Liquid Handling Robot • Beckman Multimek 96 Automated 96 Channel Pipettor • Millipore Vacuum Manifold Basic Kit # MAVM0960R • Titertek Multidrop Liquid Dispenser • Packard TopCount NXT Liquid Scintillation Counter
Enzyme: • Casein Kinase 1ε final concentration 0.58 mg/ml obtained from fermentation and purification processes as are well known to one skilled in the art. The above are stored as 100 μL aliquots at minus 80° C.
Compounds: • Supply compounds for testing as frozen 10 mM compound stock dissolved in 100% DMSO. Assay Conditions:
Final total assay volume per well is equal to 50 μL that one prepares as follows: • 5 μL of diluted compound stock (10, 1, 0.1, 0.01 or 0.001 μM), • 5 μL of dephosphorylated casein final concentration 0.2 μg/μL, • 20 μL of CK1ε final concentration 3 ng/μL, and • 20 μL of γ-^33P-ATP final concentration 0.02 μCi/μL mixed with cold ATP (10 μM final). Methodology: • 1. Prepare 500 mL of fresh assay buffer: 50 mM Tris pH 7.5, 10 mM MgCl2, 2 mM DTT and 1 mM EGTA • 2. Obtain compounds to be evaluated as 10 μL of 10 mM stock dissolved in 100% DMSO. Use a Biomek 2000 liquid handling robot, make serial dilutions to yield 10, 1, 0.1, 0.01 and 0.001 μM final compound dilutions added as 5 μL additions to Falcon U bottom plates. […] A routine screening assay will consist of 32 compounds, which equals 4 assay plates. • 3. Assay plate maps are set up according to the following pattern CK1ePlateMap.xls
• 4. Add 5 μL of compound as indicated, then add 5 μL of dephosphorylated casein (dissolved in distilled H20)(0.2 μg/μL) and 20 μL CK1ε (3 ng/μL) to the appropriate wells. • 5. Finally add 20 μL γ-^33P-ATP (0.02 μCi/μL)/10 μM cold ATP (equals approximately 2×10^6 CPM per well). • 6. Vortes the Falcon U-Bottom assay plate containing the above 50 μL reaction volume and then incubate at room temperature for 2 hours. • 7. At the end of 2 hours, stop the reaction by the addition of 65 μL of ice cold 2 mM cold ATP (made up in assay buffer) to the assay plates using a Beckman Multimek. • 8. At the same time add 25 μL 100% ice cold TCA made up in distilled H20 to a matching number of Millipore MAPH filter plates. • 9. Using a handheld 8-channel pipettor, transfer 100 μL of the reaction mixture from the Falcon U-Bottom Plate to the Millipore MAPH filter plates presoaked with TCA. • 10. Mix the Millipore MAPH filter plates gently and allow to sit at room temperature for at least 30 minutes to precipitate the proteins. • 11. After 30 minutes, place the filter plates on a Millipore vacuum manifold and filter at no more than 8 mm Hg as the MAPH filters tend to “air lock” at higher vacuum settings. • 12. Wash the filter plates sequentially and filter with 2×150 μL 20% TCA, 2×150 μL 10% TCA and 2×150 μL 5% TCA (total of 6 washes per plate/900 μL per well). • 13. Allow the plates to dry overnight at room temperature. The next day add 40 μL Packard Microscint-20 Scintillation Fluid per well using a Titertek Multidrop dispenser; seal the plates and count for 2 minutes/well in a Packard Topcount NXT Scintillation Counter (to provide CPM values/well). Calculation: • 1. Import Counts Per Minute (CPM) data into a proprietary data calculation and archiving database (Activity Base by IDBS version 5.0). • 2. Column 1 for each plate reflects total phosphorylation activity of the enzyme in the absence of any inhibiting compound and thus represents 100%. Column 12 reflects any nonspecific phosphorylation/retained radioactivity activity in the absence of inhibiting compound and enzyme.

T1 sequence (P49674 whole entry): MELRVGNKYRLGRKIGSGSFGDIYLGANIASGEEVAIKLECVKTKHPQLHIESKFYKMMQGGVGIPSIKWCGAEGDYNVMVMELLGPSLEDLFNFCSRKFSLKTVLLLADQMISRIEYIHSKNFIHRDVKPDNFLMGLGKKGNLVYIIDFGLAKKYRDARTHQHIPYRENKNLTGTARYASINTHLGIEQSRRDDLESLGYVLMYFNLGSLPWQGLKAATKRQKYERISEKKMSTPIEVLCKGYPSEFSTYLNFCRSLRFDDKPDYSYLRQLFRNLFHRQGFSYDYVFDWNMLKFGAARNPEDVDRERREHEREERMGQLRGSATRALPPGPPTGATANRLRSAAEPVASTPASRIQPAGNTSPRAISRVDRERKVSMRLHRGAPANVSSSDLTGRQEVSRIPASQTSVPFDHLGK

NC(=O)c1[nH]c2sccc2c1Sc1ccccn1 [IIa, 4-(pyridin-2-ylsulfanyl)-6H-thieno[2,3-b]pyrrole-5-carboxylic acid amide]
pKi: 7.19

NC(=O)c1[nH]c2sccc2c1Sc1ccncc1 [IId, 4-(Pyridin-4-ylsulfanyl)-6H-thieno[2,3-b]-pyrrole-5-carboxylic acid amide]
pKi: 5.97

NC(=O)c1[nH]c2sccc2c1Sc1cc(Cl)cc(Cl)c1 [IIe, 4-(3,5-Dichlorophenyl-sulfanyl)-6H-thieno[2,3-b]pyrrole-5-carboxylic acid amide]
pKi: 6.96

NC(=O)c1[nH]c2sccc2c1Sc1cccs1 [IIf, 4-(Thiophen-2-yl-sulfanyl)-6H-thieno[2,3-b]pyrrole-5-carboxylic acid amide]
pKi: 5.84

COc1cccc(Sc2c(C(N)=O)[nH]c3sccc23)c1 [IIh, 4-(3-Methoxyphenyl-sulfanyl)-6H-thieno[2,3-b]pyrrole-5-carboxylic acid amide]
pKi: 7.61

NC(=O)c1[nH]c2sccc2c1Sc1cccc(Cl)c1 [IIj, 4-(3-Chlorophenyl-sulfanyl)-6H-thieno[2,3-b]pyrrole-5-carboxylic acid amide]
pKi: 6.95

Cc1cccc(Sc2c(C(N)=O)[nH]c3sccc23)c1 [IIk, 4-(3-Methylphenyl-sulfanyl)-6H-thieno[2,3-b]pyrrole-5-carboxylic acid amide]
pKi: 7.15

COc1cccc(Sc2c(C(N)=O)[nH]c3sc(C)nc23)c1 [IIm, 6-(3-Methoxyphenyl-sulfanyl)-2-methyl-4H-pyrrolo[3,2-d]thiazole-5-carboxylic acid amide]
pKi: 7.17

Cc1nc2c(Sc3cccc(OC(F)(F)F)c3)c(C(N)=O)[nH]c2s1 [IIp, 6-(3-Trifluoromethoxy-phenylsulfanyl)-2-methyl-4H-pyrrolo[3,2-d]thiazole-5-carboxylic acid amide]
pKi: 5.39

NC(=O)c1[nH]c2sc(Sc3ccccc3)nc2c1Sc1ccccc1 [IIq, 2,6-Bis-phenylsulfanyl-4H-pyrrolo[3,2-d]thiazole-5-carboxylic acid amide]
pKi: 6.48

COc1cccc(Sc2nc3c(Sc4cccc(OC)c4)c(C(N)=O)[nH]c3s2)c1 [IIr, 2,6-Bis-(3-methoxy-phenylsulfanyl)-4H-pyrrolo[3,2-d]thiazole-5-carboxylic acid amide]
pKi: 6.48

NC(=O)c1[nH]c2ccsc2c1Sc1ccccc1 [Ia, 6-Phenylsulfanyl-4H-thieno[3,2-b]pyrrole-5-carboxylic acid amide]
pKi: 6.26

NC(=O)c1[nH]c2ccsc2c1Sc1cccc(F)c1 [Ib, 6-(3-Fluorophenyl-sulfanyl)-4H-thieno[3,2-b]pyrrole-5-carboxylic acid amide]
pKi: 6.80

NC(=O)c1[nH]c2ccsc2c1Sc1ccc(Cl)cc1 [Ic, 6-(4-Chlorophenyl-sulfanyl)-4H-thieno[3,2-b]pyrrole-5-carboxylic acid amide]
pKi: < 5.00

NC(=O)c1[nH]c2ccsc2c1Sc1ccccn1 [Ie, 6-(Pyridin-2-ylsulfanyl)-4H-thieno[3,2-b]pyrrole-5-carboxylic acid amide]
pKi: 6.80

Cc1ccc(Sc2c(C(N)=O)[nH]c3ccsc23)cc1 [If, 6-p-Tolylsulfanyl-4H-thieno[3,2-b]pyrrole-5-carboxylic acid amide]
pKi: 5.51

NC(=O)c1[nH]c2ccsc2c1Sc1cccs1 [Ig, 6-(Thiophen-2-yl-sulfanyl)-4H-thieno[3,2-b]pyrrole-5-carboxylic acid amide]
pKi: 6.04

NC(=O)c1[nH]c2ccsc2c1Sc1cc(Cl)cc(Cl)c1 [Ih, 6-(3,5-Dichloro-phenylsulfanyl)-4H-thieno[3,2-b]pyrrole-5-carboxylic acid amide]
pKi: 7.15

NC(=O)c1[nH]c2ccsc2c1Sc1ccncc1 [Ii, 6-(Pyridin-4-ylsulfanyl)-4H-thieno[3,2-b]pyrrole-5-carboxylic acid amide]
pKi: 5.78

Cc1cccc(Sc2c(C(N)=O)[nH]c3ccsc23)c1 [Ij, 6-m-Tolylsulfanyl-4H-thieno[3,2-b]pyrrole-5-carboxylic acid amide]
pKi: 6.93

Cc1ccccc1Sc1c(C(N)=O)[nH]c2ccsc12 [Ik, 6-o-Tolylsulfanyl-4H-thieno[3,2-b]pyrrole-5-carboxylic acid amide]
pKi: 6.33

NC(=O)c1[nH]c2ccsc2c1Sc1cccc(Cl)c1Cl [Il, 6-(2,3-Dichloro-phenylsulfanyl)-4H-thieno[3,2-b]pyrrole-5-carboxylic acid amide]
pKi: 6.49

NC(=O)c1[nH]c2ccsc2c1Sc1cc(Cl)ccc1Cl [Im, 6-(2,5-Dichloro-phenylsulfanyl)-4H-thieno[3,2-b]pyrrole-5-carboxylic acid amide]
pKi: 5.90

CCc1ccccc1Sc1c(C(N)=O)[nH]c2ccsc12 [In, 6-(2-Ethylphenylsulfanyl)-4H-thieno[3,2-b]pyrrole-5-carboxylic acid amide]
pKi: 6.62

NC(=O)c1[nH]c2ccsc2c1Sc1cccc(Br)c1 [Io, 6-(3-Bromo-phenylsulfanyl)-4H-thieno-[3,2-b]pyrrole-5-carboxylic acid amide]
pKi: 7.10

Cc1cc(C)cc(Sc2c(C(N)=O)[nH]c3ccsc23)c1 [Ip, 6-(3,5-Dimethylphenylsulfanyl)-4H-thieno[3,2-b]pyrrole-5-carboxylic acid amide]
pKi: 6.45

COc1cccc(Sc2c(C(N)=O)[nH]c3ccsc23)c1 [Iq, 6-(3-Methoxy-phenylsulfanyl)-4H-thieno[3,2-b]pyrrole-5-carboxylic acid amide]
pKi: 7.42

COc1ccccc1Sc1c(C(N)=O)[nH]c2ccsc12 [Ir, 6-(2-Methoxy-phenylsulfanyl)-4H-thieno[3,2-b]pyrrole-5-carboxylic acid amide]
pKi: 6.48

NC(=O)c1[nH]c2ccsc2c1Sc1ccccc1C(F)(F)F [Is, 6-(2-Trifluoromethyl-phenylsulfanyl)-4H-thieno[3,2-b]pyrrole-5-carboxylic acid amide]
pKi: 6.32

NC(=O)c1[nH]c2ccsc2c1Sc1ccccc1F [It, 6-(2-Fluoro-phenylsulfanyl)-4H-thieno[3,2-b]pyrrole-5-carboxylic acid amide]
pKi: 6.37

NC(=O)c1[nH]c2ccsc2c1Sc1cccc(OC(F)(F)F)c1 [Iu, 6-(3-Trifluoromethoxy-phenylsulfanyl)-4H-thieno[3,2-b]pyrrole-5-carboxylic acid amide]
pKi: 6.25

NC(=O)c1[nH]c2ncsc2c1Sc1ccccc1 [Iv, 6-Phenylsulfanyl-4H-pyrrolo[2,3-d]thiazole-5-carboxylic acid amide]
pKi: 5.34

NC(=O)c1[nH]c2ncsc2c1Sc1cccc(F)c1 [Iw, 6-(3-Fluoro-phenylsulfanyl)-4H-pyrrolo[2,3-d]thiazole-5-carboxylic acid amide]
pKi: 5.69

NC(=O)c1[nH]c2ncsc2c1Sc1ccccn1 [Ix, 6-(Pyridin-2-ylsulfanyl)-4H-pyrrolo[2,3-d]thiazole-5-carboxylic acid amide]
pKi: 5.76
